According to patent US8663629B2, “Kallikrein-binding “kunitz domain” proteins and analogues thereof” (Dyax Corp., priority 1994, dated 2014):
Each block holds one substance with its values, some of them ahead of it. Bridge positions count the residues as written; N and C are the ends. Ends that are not written are not given here. * marks the point of attachment. CH2F = FC*

Legend:
plasma Kallikrein [1] = target: T1, plasma Kallikrein (Homo sapiens, UniProt P03952); settings: ANGL87; cited from earlier work
Target sequence in this assay (P03952 20-390): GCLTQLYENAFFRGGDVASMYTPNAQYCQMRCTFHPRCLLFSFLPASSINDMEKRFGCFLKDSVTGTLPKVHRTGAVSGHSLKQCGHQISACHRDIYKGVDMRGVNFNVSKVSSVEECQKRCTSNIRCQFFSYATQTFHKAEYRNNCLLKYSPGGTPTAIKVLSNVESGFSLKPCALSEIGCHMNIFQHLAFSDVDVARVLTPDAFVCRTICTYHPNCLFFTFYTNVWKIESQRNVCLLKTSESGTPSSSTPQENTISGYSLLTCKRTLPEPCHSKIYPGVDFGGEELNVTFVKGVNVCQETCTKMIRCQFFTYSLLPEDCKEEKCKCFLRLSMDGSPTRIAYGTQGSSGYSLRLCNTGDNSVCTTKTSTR
Target sequence in this assay (P03952 391-638): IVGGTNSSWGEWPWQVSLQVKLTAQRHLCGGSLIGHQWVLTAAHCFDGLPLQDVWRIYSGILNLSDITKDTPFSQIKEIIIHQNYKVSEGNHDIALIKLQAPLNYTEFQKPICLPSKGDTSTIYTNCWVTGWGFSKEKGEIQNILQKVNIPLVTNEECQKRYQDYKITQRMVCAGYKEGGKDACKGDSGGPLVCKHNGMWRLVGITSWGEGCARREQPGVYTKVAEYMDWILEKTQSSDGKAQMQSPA

Trypsin [2] = settings: ANGL87; cited from earlier work
Plasmin [3] = target: T2, Plasmin (Homo sapiens, UniProt P00747); test: biochemical
T2 sequence (P00747 581-810 limits assumed, species assumed): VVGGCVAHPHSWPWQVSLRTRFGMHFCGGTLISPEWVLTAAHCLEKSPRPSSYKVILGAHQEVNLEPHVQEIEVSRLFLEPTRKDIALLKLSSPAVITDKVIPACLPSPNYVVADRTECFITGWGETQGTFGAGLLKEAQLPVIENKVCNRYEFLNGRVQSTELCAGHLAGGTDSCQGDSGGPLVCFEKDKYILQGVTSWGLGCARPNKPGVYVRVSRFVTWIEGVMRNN
T2 sequence (P00747 97-580 partner limits assumed, species assumed): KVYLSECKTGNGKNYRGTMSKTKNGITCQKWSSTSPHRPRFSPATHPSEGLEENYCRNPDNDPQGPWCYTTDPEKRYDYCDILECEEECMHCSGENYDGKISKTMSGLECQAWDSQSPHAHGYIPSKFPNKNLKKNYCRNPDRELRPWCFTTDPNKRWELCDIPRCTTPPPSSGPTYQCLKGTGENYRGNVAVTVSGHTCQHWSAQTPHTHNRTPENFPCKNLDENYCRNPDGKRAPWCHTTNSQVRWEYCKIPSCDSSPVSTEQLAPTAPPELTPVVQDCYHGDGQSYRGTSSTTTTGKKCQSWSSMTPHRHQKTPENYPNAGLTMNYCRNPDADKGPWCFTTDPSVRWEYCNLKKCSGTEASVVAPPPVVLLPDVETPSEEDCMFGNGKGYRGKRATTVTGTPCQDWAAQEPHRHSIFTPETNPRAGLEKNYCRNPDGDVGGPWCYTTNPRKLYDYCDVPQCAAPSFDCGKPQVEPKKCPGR
From the text: (§1) A second method appropriate for measuring the affinity of inhibitors for enzymes is to measure the ability of the inhibitor to slow the action of the enzyme. This method requires, depending on the speed at which the enzyme cleaves substrate and the availability of chromogenic or fluorogenic substrates, tens of micrograms to milligrams of relatively pure inhibitor.

pKA (plasma kallikrein) = pKA (plasma kallikrein) (Homo sapiens, UniProt P03952); test: biochemical
pKA (plasma kallikrein), sequence (P03952 391-638 limits assumed): as the sequence (P03952 391-638) above
pKA (plasma kallikrein), sequence (P03952 20-390 limits assumed): as the sequence (P03952 20-390) above
From the text: as §1

Plasmin [4] = target: T2, Plasmin; test: Display-phage binding to plasmin target (specificity); settings: compared to the parental phage display LACI-K1
Thrombin = Thrombin (Homo sapiens, UniProt P00734); test: Display-phage binding to thrombin target (specificity); settings: compared to the parental phage display LACI-K1
Trypsin [5] = test: Display-phage binding to trypsin target (specificity); settings: compared to the parental phage display LACI-K1
plasma Kallikrein [6] = target: T1, plasma Kallikrein; test: Display-phage binding to human plasma kallikrein-agarose beads; set-up: The light chain (248 residues) carries the catalytic site; purchased Calbiochem #420302
Description: This method is highly sensitive because the genetic packages can be amplified. We obtain at least semiquantitative values for the binding constants by use of a pH step gradient.
The overall scheme for selecting a LACI(K1) variant to bind to a given protease involves incubation of the phage-display library with the kallikrein-beads of interest in a buffered solution (PBS containing 1 mg/ml BSA) followed by washing away the unbound and poorly retained display-phage variant with PBS containing 0.1% Tween 20. Kallikrein beads were made by coupling human plasma Kallikrein (Calbiochem, San Diego, Calif., #420302) to agarose beads using Reactigel (6×) (Pierce, Rockford, Ill., #202606). […]
The neutralized eluted display-phage can be either used: • i) to inoculate an F^+ strain of E. coli to generate a new display-phage stock, to be used for subsequent rounds of selection (so-called conventional screening), or • ii) be used directly for another immediate round of selection with the protease beads (so-called quick screening). Typically, three rounds of either method, or a combination of the two, are performed to give rise to the final selected display-phage from which a representative number are sequenced and analyzed for binding properties either as pools of display-phage or as individual clones.
Target sequence in this assay (P03952 391-638 limits assumed): as the sequence (P03952 391-638) above
Target sequence in this assay (P03952 20-390 limits assumed): as the sequence (P03952 20-390) above

Substance: Ala-Phe-Lys-CH2F
inhibition of plasma kallikrein (plasma Kallikrein [1]): active-centre-directed inhibitor
inhibition of trypsin (Trypsin [2]): active-centre-directed inhibitor

Substance: MHSFCAFKADDGHCKANHQRFFFNIFTRQCEEFSYGGCGGNQNRFESLEECKKMCTRD (disulfide 5-55, 14-38, 30-51) [KKII/3#6]
Ki (Plasmin [3]): 10 µM
Ki (pKA (plasma kallikrein)): < 0.0005 µM
Ki for kallikrein (pKA (plasma kallikrein); stated in words): nanomolar range
Ki for kallikrein relative to wild-type LACI and BPTI (pKA (plasma kallikrein); versus both wild-type LACI and BPTI): over 100 times

relative binding of phage display clones, target Plasmin (Plasmin [4]): (88)^4
relative binding of phage display clones, target Thrombin (Thrombin): (1.1)
relative binding of phage display clones, target Trypsin (Trypsin [5]): (0.3)
relative binding of phage display clones, target Trypsin, two washes (Trypsin [5]; two washes): (0.8)
relative binding of phage display clones, target Kallikrein (plasma Kallikrein [6]; compared to the parental phage display LACI-K1): (1.7)
Relative Binding (plasma Kallikrein [6]; fraction bound relative to the parental display-phage LACI(K1)): 6.0
Substance: bovine pancreatic trypsin inhibitor [BPTI]
